The values that follow come from patent US5954858A, “Bioreactor process for the continuous removal of organic compounds from a vapor phase process stream” (North Carolina State University, priority 1996, dated 1999).

“Also recorded” adds a separate entry of the source.

The test system of data set [1] is Strain mx-2. The experiment in a line: Oxygen uptake rate, strain mx-2. In kind it is cell-based, bacterial strain mx-2. Here is the method:
(§1) Experiments were conducted to examine the range of compounds degraded by enzymes present in the metabolic pathways of the strains established on meta- and para-xylene, as described in Example 7. […] The compounds listed Table 7 from benzoate through protocatechuate are enzymatic pathway intermediates in the oxidation of aromatic compounds.

In data set [2] the test system is Strain px-2. Kind of data set: Oxygen uptake rate, strain px-2. In kind it is cell-based, bacterial strain px-2. The method, then: as §1
For data set [3], the system named is initial gasoline consortium. Kind of data set: Enrichment of the initial gasoline consortium in individual flasks. In kind it is cell-based, organisms isolated from gasoline-saturated soil samples. From the text: (§2) Using a mixed consortium of organisms isolated in liquid culture from soil samples removed from a site saturated with gasoline for a number of years, the model compounds from each of the represented species in furniture exhaust gases were examined for degradability. Degradability actually refers to the ability of the microorganisms to utilize a compound as a carbon source for growth and energy. Different carbon sources are preferred by different organisms, so it was important to determine which model compounds were acceptable for the consortium which was isolated. Following completion of these initial studies, organism subcultures were generated for specific compounds.

Data set [4] has as its system mx-2. The experiment in a line: m-Xylene degradation rate of mx-2 strain. In kind it is cell-based, mx-2 bacterial strain. From the text:
(§3) Using a mixed consortium of organisms isolated in liquid culture from soil samples removed from a site saturated with gasoline for a number of years, the model compounds from each of the represented species in furniture exhaust gases were examined for degradability. Degradability actually refers to the ability of the microorganisms to utilize a compound as a carbon source for growth and energy. […] Following completion of these initial studies, organism subcultures were generated for specific compounds.
(§4) Maximum growth rates for the isolated consortia were determined in shake flask studies containing minimal media and supplemented with the appropriate compound. Concentrations of volatile organic compounds added to the flasks were 400 ppm (mole/mole) for MEK and MIBK, 150 ppm for m-xylene and p-xylene, and 2000 ppm for IBA and methanol.
(§5) The effects of carbon source composition were examined for the mx-2 bacterial strain. mx-2 is one of the strains of microorganism isolated from soil samples exposed to gasoline as described in Example 7.
(§6) In addition to examining the effects of ethanol and methanol, the impact of octanol on microorganism growth was determined. This investigation was necessary since some octanol (stripping fluid) will be delivered to the membrane bioreactor with the VHAPs/VOCs.

The test system of data set [5] is mx-2. The experiment in a line: Growth rate of mx-2 strain in shake flask. To be noted: for effect on the growth rate: mx-2 mixed carbon source study. In kind it is cell-based, mx-2 bacterial strain.
Source text: as §3, §4, §5, §6

Data set [6] is described as follows: Partition coefficient of solute between stripping fluid (octanol) and air. In kind it is physicochemical. The method, then: Before beginning work with the LIQUI-CEL® membrane modules presented in Example 2, partition coefficient experiments were performed to investigate the equilibrium distribution of m-xylene, MEK, and MIBK between phases for stripping fluid/air. Octanol was chosen as the stripping fluid because data from previously conducted studies was readily available for comparison.
(§7) Partition coefficients are defined as a measure of the affinity a solute has for one phase over another at equilibrium. Therefore, they are an integral part of equations related to membrane contactor design and operation. Partition coefficients are expressed as a ratio of concentrations; the general form being (concentration in solvent)/(concentration in air).
For these studies, two forms of the partition coefficient were used. The first was the general form, which indicated the level of driving force for mass transfer (a value greater than 1 indicates sufficient driving force). The second form was defined as 1/(general form), or 1/Pgen, which was used in system operating equations.

A short description of data set [7]: Partition coefficient of solute between octanol and water. In kind it is physicochemical. To be noted: 31 °C.
In data set [8] the test system is isolated soil consortia. Kind of data set: Degradability / utilization as growth substrate by isolated soil consortia. In kind it is cell-based. The conditions noted are these: utilization as carbon source for growth and energy.
Source text: as §2

Data set [9] in a line: Partition coefficient of m-xylene between natural oils and air. In kind it is physicochemical. To be noted: 31 °C.
Source text: as §7
An additional set of experiments was run to evaluate stripping fluids other than octanol. This was due mainly to the relatively high cost of commercially available octanol. Partition coefficients were determined for m-xylene in several natural oils at 31° C. […] The purchase cost of these oils is roughly one-quarter that of octanol.

For data set [10], the system named is isolated consortia. The experiment in a line: Growth rate of cultures on o-xylene. In kind it is cell-based, bacterial cultures isolated from soil samples.
Source text: as §2
Pure bacterial cultures (single identifiable organisms) were established on meta- and para-xylene; the other cultures consisted of approximately three different bacterial strains each. Maximum growth rates for the isolated consortia were determined in shake flask studies containing minimal media and supplemented with the appropriate compound. Concentrations of volatile organic compounds added to the flasks were 400 ppm (mole/mole) for MEK and MIBK, 150 ppm for m-xylene and p-xylene, and 2000 ppm for IBA and methanol.

Where [11] appears, read: mx-2 on m-xylene, + 500 ppm octanol.

Consider `Oc1ccccc1O` [Catechol], for which the “Oxygen Uptake” value in data set [1] worked out at 1.23 μmol/min-mg total protein; in data set [2], 5.19 μmol/min-mg total protein.
For `CC(=O)OCC(C)C` [isobutyl acetate], the “cultures capable of degrading compound after enrichment” value (“cultures capable of degrading compound” below) in data set [3] is “cultures capable of degrading each compound were developed”.
For `Cc1cccc(C)c1` [m-xylene], in [4] (mx-2 (grown on m-xylene, 150 ppm)), the “Degradation Rate” value was 3.60 * 10^-10 mg/(hr - cell). For the same molecule, the “Oxygen Uptake” value is recorded as 0.82 μmol/min-mg total protein in [1] and 0.31 μmol/min-mg total protein in data set [2]. For the same molecule, the “Specific Growth Rate” value in data set [5] (mx-2 (strain grown on m-xylene, 150 ppm)) is 0.46 hr^1. Moreover, the “Partition Coef. [oct]/[air]” value in data set [6] (6 °C) was 9,865; in data set [6] (22 °C) it was 7,978; in data set [6] (31 °C), 7,703. Besides, the “form 2 partition coefficient, Pair/oct (1/general form)” value in [6] (air/stripping fluid separation unit) is reported as 0.00014. The “cultures capable of degrading compound” value in data set [3] is listed as “cultures capable of degrading each compound were developed”. Further, the “Partition Coef. [oct]/[water]” value in data set [7] is on record as 1,021. Also, the Degradability result in data set [8] is given as “Yes”. Besides, the “Partition Coef. [solvent]/[air]” value is on record as 8,283 in [9] (corn oil), 7,284 in data set [9] (mineral oil) and 8,244 in data set [9] (sunflower seed oil). In addition, in [9] (natural oils evaluated), the “Partition coefficients in natural oils versus octanol” value is on record as “comparable to those for octanol”.
As for `Cc1ccccc1` [Toluene], the “Oxygen Uptake” value in [1] is on record as 0.18 μmol/min-mg total protein; in [2] it was 0.17 μmol/min-mg total protein. The Degradability result in [8] is “Yes”.
With `Cc1cccc(O)c1O` [3-Methylcatechol], the “Oxygen Uptake” value in [1] worked out at 1.17 μmol/min-mg total protein; in data set [2], 1.50 μmol/min-mg total protein.
With `C=Cc1ccccc1` [Styrene], the “Oxygen Uptake” value amounted to 0.55 μmol/min-mg total protein in data set [1] and 0.47 μmol/min-mg total protein in data set [2]. Further, in data set [8], the Degradability entry is “Yes”.
For `CC(C)=O` [Acetone], the Degradability result in [8] is “Yes”.
For `CC(=O)CC(C)C` [MIBK, methyl isobutyl ketone], the “Partition Coef. [oct]/[air]” value in data set [6] (6 °C) is reported as “.infin”; in [6] (22 °C), 22,045; in data set [6] (31 °C), 8,721. In data set [3], the “cultures capable of degrading compound” value is “cultures capable of degrading each compound were developed”. Besides, the “Partition Coef. [oct]/[water]” value in data set [7] was 2.1. For the same molecule, in data set [8], the Degradability result is on record as “Yes”.
`Cc1ccc(C)cc1` [p-Xylene]: the “Oxygen Uptake” value is 1.21 μmol/min-mg total protein in [1] and 0.34 μmol/min-mg total protein in data set [2]. In addition, in data set [3], the “cultures capable of degrading compound” value is recorded as “cultures capable of degrading each compound were developed”. Also, in data set [8], the Degradability entry is “Yes”.
On to `Cc1ccccc1C` [o-Xylene], for which, in [1], the “Oxygen Uptake” value came out at 0.31 μmol/min-mg total protein. Further, the “growth rate compared with other compounds” value in [10] is recorded as “relatively slow compared with that on other compounds”. The Degradability result in data set [8] was “Yes”.
On to `CCCCO` [n-Butyl alcohol], for which the Degradability result in data set [8] was “Yes”.
In the case of `c1ccccc1` [Benzene], the entries for the “Oxygen Uptake” value in data set [1] and in data set [2] were 0.27 μmol/min-mg total protein and 0.13 μmol/min-mg total protein, respectively.
The matching figures for `O=C(O)c1ccccc1` [Benzoate]: 0.66 μmol/min-mg total protein and 2.34 μmol/min-mg total protein.
On to `CO` [Methanol, methanol], for which the “Degradation Rate” value in [4] (mx-2 on m-xylene, + 0.2% MeOH) was 3.57 * 10^-10 mg/(hr - cell). The “effect on the growth rate” value in data set [5] is “negligible; also recorded: no effect”. Besides, the “Specific Growth Rate” value in data set [5] (mx-2 on m-xylene, + 0.2% MeOH) worked out at 0.45 h⁻¹. Moreover, the “cultures capable of degrading compound” value in [3] is on record as “cultures capable of degrading each compound were developed”. In data set [8], the Degradability result is listed as “Yes”.
Consider `CC(C)CO` [Isobutyl alcohol], for which the Degradability entry in data set [8] was “Yes”.
Turning to `Cc1ccc(O)c(O)c1` [4-Methylcatechol], the “Oxygen Uptake” value was 0.92 μmol/min-mg total protein in data set [1] and 4.35 μmol/min-mg total protein in [2].
Consider `CCCCCCCCO` [octanol], for which the “Degradation Rate” value in data set [4] (setting [11]) was 3.60 * 10^-10 mg/(hr - cell). Besides, the “effect on the degradation rate” value in data set [4] (test microorganism strain grown on m-xylene) was “no effect”. Moreover, the entries for the “Specific Growth Rate” value in [5] (500 ppm octanol (without "+")) and in [5] (setting [11]) were 0.20 h⁻¹ and 0.46 h⁻¹, respectively. The “effect on the growth rate” value in data set [5] was “no effect”.
With `CCO` [Ethanol], in [4] (mx-2, in presence of ethanol), the “reduction of the degradation rate of m-xylene” value is given as “about 30%”. Moreover, the “Degradation Rate” value in [4] (mx-2 on m-xylene, + 0.2% EtOH) is listed as 2.34 * 10^-10 mg/(hr - cell). The “effect on the growth rate” value in data set [5] is on record as “negligible”. The “Specific Growth Rate” value in [5] (mx-2 on m-xylene, + 0.2% EtOH) was found to be 0.40 h⁻¹. The “lowering of the maximum growth rate” value in data set [5] (mx-2 on m-xylene, in presence of ethanol) is 10%. The Degradability result in [8] is listed as “Yes”.
`CCC(C)=O` [MEK, methyl ethyl ketone]: in data set [3], the “cultures capable of degrading compound” value is reported as “cultures capable of degrading each compound were developed”. The Degradability result in [8] is on record as “Yes”.
Turning to `C=O` [Formaldehyde], in [8], the Degradability entry is recorded as “Yes”.
